Results as given in US20260070945A1, “MACROCYCLIC IMMUNOMODULATORS” (Bristol-Myers Squibb Company, priority 2022, published 2026).
Where a SMILES comes first, the peptide text is derived from it. Bridges are numbered along the chain shown (N, C = ends). [ ]: non-standard residue; d: D form. The star is where a group is joined. ξ: configuration not given here. Phe(4-COOH) = N[C@@H](Cc1ccc(C(=O)O)cc1)C(=O)O; Bip = N[C@@H](Cc1ccc(-c2ccccc2)cc1)C(=O)O; Val(3-OH) = CC(C)(O)[C@H](N)C(=O)O; Cha = N[C@@H](CC1CCCCC1)C(=O)O; Cit = NC(=O)NCCC[C@H](N)C(=O)O; Thr(3ξ) = CC(O)[C@H](N)C(=O)O; Carboxymethyl = O=C(O)C*; NMeA = CN[C@@H](C)C(=O)O; Aun = NCCCCCCCCCCC(=O)O; Dab = NCC[C@H](N)C(=O)O; AEEA = NCCOCCOCC(=O)O

Biological target: T1, PD-1/PD-L1 interaction (PE-labeled human PD-L1-Ig binding to Jurkat cell line over-expressing human PD-1) (Homo sapiens, UniProt Q15116)
T1 construct: expressed in transfected cells; host or cells: Jurkat
Assay: Jurkat-PD-1 Cell Binding High-Content Screening Assay (CBA)
Conditions: Jurkat-hPD-1 cells, PE-labeled PD-L1-Ig 20 nM final; read-out: Jurkat HPD1 PDL1 IC50
Procedure, shortened: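 Cells 8×10^3/well, DMEM + 10% FCS; cpd 2 h, 37 °C; PE–PD-L1-Ig 20 nM final, 1 h; PFA fix + Hoechst 33342, 3× dPBS wash; high-content imager.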

T1 sequence (Q15116 25-288): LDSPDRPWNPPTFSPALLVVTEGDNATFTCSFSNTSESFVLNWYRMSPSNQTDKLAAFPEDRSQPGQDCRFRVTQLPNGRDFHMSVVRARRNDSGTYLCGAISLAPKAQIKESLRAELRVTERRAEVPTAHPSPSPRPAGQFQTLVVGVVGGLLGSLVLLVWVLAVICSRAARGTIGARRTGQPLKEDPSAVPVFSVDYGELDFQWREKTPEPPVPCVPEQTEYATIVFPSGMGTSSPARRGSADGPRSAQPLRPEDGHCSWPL

Compound | IC50 [µM]
CC(C)C[C@@H]1NC(=O)[C@H](Cc2c[nH]c3ccccc23)NC(=O)[C@H](CC(=O)O)NC(=O)[C@H](Cc2ccc(OCC(=O)O)cc2)NC(=O)[C@H](Cc2ccc(OCC(=O)O)cc2)NC(=O)CSC[C@@H](C(=O)NCCOCCOCC(=O)NCCCCCCCCCCC(=O)O)NC(=O)[C@H](CO)NC(=O)[C@H](C(C)(C)O)NC(=O)[C@H](CC2CCCCC2)NC(=O)[C@H](CCN)NC(=O)[C@@H](CC(C)C)NC(=O)[C@H](C)N(C)C(=O)[C@H](C(C)C)NC(=O)[C@H](Cc2ccc(-c3ccccc3)cc2)NC1=O [Example 2444] ({CH2CO}-Y(Carboxymethyl)Y(Carboxymethyl)DWL[Bip]V[NMeA][dL][Dab][Cha][Val(3-OH)]SC[AEEA][Aun]-OH; thioether N-14) | 0.0404
CC(C)C[C@@H]1NC(=O)[C@H](Cc2c[nH]c3ccccc23)NC(=O)[C@H](CC(=O)O)NC(=O)[C@H](Cc2ccc(OCC(=O)O)cc2)NC(=O)[C@H](Cc2ccc(OCC(=O)O)cc2)NC(=O)CSC[C@@H](C(=O)NCCOCCOCC(=O)NCCCCCCCCCCC(=O)O)NC(=O)[C@H](CO)NC(=O)[C@H](Cc2cnc[nH]2)NC(=O)[C@H](CC2CCCCC2)NC(=O)[C@H](CCN)NC(=O)[C@@H](CC(C)C)NC(=O)[C@H](C)N(C)C(=O)[C@H](C(C)C)NC(=O)[C@H](Cc2ccc(-c3ccccc3)cc2)NC1=O [Example 2445] ({CH2CO}-Y(Carboxymethyl)Y(Carboxymethyl)DWL[Bip]V[NMeA][dL][Dab][Cha]HSC[AEEA][Aun]-OH; thioether N-14) | 0.0465
CC(C)C[C@@H]1NC(=O)[C@H](Cc2c[nH]c3ccccc23)NC(=O)[C@H](CC(=O)O)NC(=O)[C@H](Cc2ccc(OCC(=O)O)cc2)NC(=O)[C@H](Cc2ccc(OCC(=O)O)cc2)NC(=O)CSC[C@@H](C(=O)NCCOCCOCC(=O)NCCCCCCCCCCC(=O)O)NC(=O)[C@H](CO)NC(=O)[C@H](C(C)(C)O)NC(=O)[C@H](CC2CCCCC2)NC(=O)[C@H](CC(N)=O)NC(=O)[C@@H](CC(C)C)NC(=O)[C@H](C)N(C)C(=O)[C@H](C(C)C)NC(=O)[C@H](Cc2ccc(-c3ccccc3)cc2)NC1=O [Example 2446] ({CH2CO}-Y(Carboxymethyl)Y(Carboxymethyl)DWL[Bip]V[NMeA][dL]N[Cha][Val(3-OH)]SC[AEEA][Aun]-OH; thioether N-14) | 0.239
CC(=O)NCC[C@@H]1NC(=O)[C@H](C(C)(C)O)NC(=O)[C@H](CC2CCCCC2)NC(=O)[C@H](CCN)NC(=O)[C@@H](CC(C)C)NC(=O)[C@H](C)N(C)C(=O)[C@H](C(C)C)NC(=O)[C@H](Cc2ccc(-c3ccccc3)cc2)NC(=O)[C@H](CC(C)C)NC(=O)[C@H](Cc2c[nH]c3ccccc23)NC(=O)[C@H](CC(=O)O)NC(=O)[C@H](Cc2ccc(OCC(=O)O)cc2)NC(=O)[C@H](Cc2ccc(OCC(=O)O)cc2)NC(=O)CSC[C@@H](C(=O)NCCOCCOCC(=O)NCCCCCCCCCCC(=O)O)NC1=O [Example 2447] ({CH2CO}-Y(Carboxymethyl)Y(Carboxymethyl)DWL[Bip]V[NMeA][dL][Dab][Cha][Val(3-OH)][Dab](Ac)C[AEEA][Aun]-OH; thioether N-14) | 0.0382
CC(C)C[C@@H]1NC(=O)[C@H](Cc2c[nH]c3ccccc23)NC(=O)[C@H](CC(=O)O)NC(=O)[C@H](Cc2ccc(OCC(=O)O)cc2)NC(=O)[C@H](C(C)O)NC(=O)CSC[C@@H](C(=O)NCCOCCOCC(=O)NCCCCCCCCCCC(=O)O)NC(=O)[C@H](CO)NC(=O)[C@H](C(C)(C)O)NC(=O)[C@H](CC2CCCCC2)NC(=O)[C@H](CCC(=O)O)NC(=O)[C@@H](CC(C)C)NC(=O)[C@H](C)N(C)C(=O)[C@H](C(C)C)NC(=O)[C@H](Cc2ccc(-c3ccccc3)cc2)NC1=O (stereo partly drawn) [Example 2448] ({CH2CO}-[Thr(3ξ)]Y(Carboxymethyl)DWL[Bip]V[NMeA][dL]E[Cha][Val(3-OH)]SC[AEEA][Aun]-OH; thioether N-14) | 0.128
CC(C)C[C@@H]1NC(=O)[C@H](Cc2c[nH]c3ccccc23)NC(=O)[C@H](CC(=O)O)NC(=O)[C@H](Cc2ccc(OCC(=O)O)cc2)NC(=O)[C@H](Cc2ccc(OCC(=O)O)cc2)NC(=O)CSC[C@@H](C(=O)NCCOCCOCC(=O)NCCCCCCCCCCC(=O)O)NC(=O)[C@H](CO)NC(=O)[C@H](Cc2cnc[nH]2)NC(=O)[C@H](CC2CCCCC2)NC(=O)[C@H](CCC(=O)O)NC(=O)[C@@H](CC(C)C)NC(=O)[C@H](C)N(C)C(=O)[C@H](C(C)C)NC(=O)[C@H](Cc2ccc(-c3ccccc3)cc2)NC1=O [Example 2449] ({CH2CO}-Y(Carboxymethyl)Y(Carboxymethyl)DWL[Bip]V[NMeA][dL]E[Cha]HSC[AEEA][Aun]-OH; thioether N-14) | 0.272

Same assay, conditions: PE-labeled PD-L1-Ig 20 nM final, Jurkat-hPD-1 cells; read-out: Jurkat HPD1 PDL1 IC50

Compound | IC50 [µM]
CC(C)C[C@@H]1NC(=O)[C@H](Cc2c[nH]c3ccccc23)NC(=O)[C@H](CC(=O)O)NC(=O)[C@H](Cc2ccc(C(=O)O)cc2)NC(=O)[C@H](Cc2ccc(OCC(=O)O)cc2)NC(=O)CSC[C@@H](C(=O)NCCOCCOCC(=O)NCCCCCCCCCCC(=O)O)NC(=O)[C@H](Cc2cnc[nH]2)NC(=O)[C@H](C(C)O)NC(=O)[C@H](CC2CCCCC2)NC(=O)[C@H](CCN)NC(=O)[C@@H](CC(C)C)NC(=O)[C@H](C)N(C)C(=O)[C@H](C(C)C)NC(=O)[C@H](Cc2ccc(-c3ccccc3)cc2)NC1=O (stereo partly drawn) [Example 2435] ({CH2CO}-Y(Carboxymethyl)[Phe(4-COOH)]DWL[Bip]V[NMeA][dL][Dab][Cha][Thr(3ξ)]HC[AEEA][Aun]-OH; thioether N-14) | 0.0255
CC(C)C[C@@H]1NC(=O)[C@H](Cc2c[nH]c3ccccc23)NC(=O)[C@H](CC(=O)O)NC(=O)[C@H](Cc2ccc(OCC(=O)O)cc2)NC(=O)[C@H](Cc2ccc(OCC(=O)O)cc2)NC(=O)CSC[C@@H](C(=O)NCCOCCOCC(=O)NCCCCCCCCCCC(=O)O)NC(=O)[C@H](Cc2cnc[nH]2)NC(=O)[C@H](CO)NC(=O)[C@H](CC2CCCCC2)NC(=O)[C@H](CCN)NC(=O)[C@@H](CC(C)C)NC(=O)[C@H](C)N(C)C(=O)[C@H](C(C)C)NC(=O)[C@H](Cc2ccc(-c3ccccc3)cc2)NC1=O [Example 2436] ({CH2CO}-Y(Carboxymethyl)Y(Carboxymethyl)DWL[Bip]V[NMeA][dL][Dab][Cha]SHC[AEEA][Aun]-OH; thioether N-14) | 0.0314
CC(C)C[C@@H]1NC(=O)[C@H](Cc2c[nH]c3ccccc23)NC(=O)[C@H](CC(=O)O)NC(=O)[C@H](Cc2ccc(OCC(=O)O)cc2)NC(=O)[C@H](C(C)O)NC(=O)CSC[C@@H](C(=O)NCCOCCOCC(=O)NCCCCCCCCCCC(=O)O)NC(=O)[C@H](C(C)O)NC(=O)[C@H](C(C)C)NC(=O)[C@H](CC2CCCCC2)NC(=O)[C@H](CCN)NC(=O)[C@@H](CC(C)C)NC(=O)[C@H](C)N(C)C(=O)[C@H](CCCNC(N)=O)NC(=O)[C@H](Cc2ccc(-c3ccccc3)cc2)NC1=O (stereo partly drawn) [Example 2437] ({CH2CO}-[Thr(3ξ)]Y(Carboxymethyl)DWL[Bip][Cit][NMeA][dL][Dab][Cha]V[Thr(3ξ)]C[AEEA][Aun]-OH; thioether N-14) | 0.0349
CC(=O)NCCCC[C@@H]1NC(=O)[C@H](Cc2ccc(-c3ccccc3)cc2)NC(=O)[C@H](CC(C)C)NC(=O)[C@H](Cc2c[nH]c3ccccc23)NC(=O)[C@H](CC(=O)O)NC(=O)[C@H](Cc2ccc(OCC(=O)O)cc2)NC(=O)[C@H](Cc2ccc(OCC(=O)O)cc2)NC(=O)CSC[C@@H](C(=O)NCCOCCOCC(=O)NCCCCCCCCCCC(=O)O)NC(=O)[C@H](CO)NC(=O)[C@H](C(C)C)NC(=O)[C@H](CC2CCCCC2)NC(=O)[C@H](CCN)NC(=O)[C@@H](CC(C)C)NC(=O)[C@H](C)N(C)C1=O [Example 2438] ({CH2CO}-Y(Carboxymethyl)Y(Carboxymethyl)DWL[Bip]K(Ac)[NMeA][dL][Dab][Cha]VSC[AEEA][Aun]-OH; thioether N-14) | 0.0168
CC(C)C[C@@H]1NC(=O)[C@H](Cc2c[nH]c3ccccc23)NC(=O)[C@H](CC(=O)O)NC(=O)[C@H](Cc2ccc(C(=O)O)cc2)NC(=O)[C@H](Cc2ccc(OCC(=O)O)cc2)NC(=O)CSC[C@@H](C(=O)NCCOCCOCC(=O)NCCCCCCCCCCC(=O)O)NC(=O)[C@H](Cc2cnc[nH]2)NC(=O)[C@H](C(C)C)NC(=O)[C@H](CC2CCCCC2)NC(=O)[C@H](CCN)NC(=O)[C@@H](CC(C)C)NC(=O)[C@H](C)N(C)C(=O)[C@H](C(C)C)NC(=O)[C@H](Cc2ccc(-c3ccccc3)cc2)NC1=O [Example 2441] ({CH2CO}-Y(Carboxymethyl)[Phe(4-COOH)]DWL[Bip]V[NMeA][dL][Dab][Cha]VHC[AEEA][Aun]-OH; thioether N-14) | 0.0338
CC(C)C[C@@H]1NC(=O)[C@H](Cc2c[nH]c3ccccc23)NC(=O)[C@H](CC(=O)O)NC(=O)[C@H](Cc2ccc(OCC(=O)O)cc2)NC(=O)[C@H](Cc2ccc(OCC(=O)O)cc2)NC(=O)CSC[C@@H](C(=O)NCCOCCOCC(=O)NCCCCCCCCCCC(=O)O)NC(=O)[C@H](Cc2c[nH]cn2)NC(=O)[C@H](C(C)C)NC(=O)[C@H](CC2CCCCC2)NC(=O)[C@H](CCN)NC(=O)[C@@H](CC(C)C)NC(=O)[C@H](C)N(C)C(=O)[C@H](C(C)C)NC(=O)[C@H](Cc2ccc(-c3ccccc3)cc2)NC1=O [Example 2442] ({CH2CO}-Y(Carboxymethyl)Y(Carboxymethyl)DWL[Bip]V[NMeA][dL][Dab][Cha]VHC[AEEA][Aun]-OH; thioether N-14) | 0.0379
CC(C)C[C@@H]1NC(=O)[C@H](Cc2c[nH]c3ccccc23)NC(=O)[C@H](CC(=O)O)NC(=O)[C@H](Cc2ccc(C(=O)O)cc2)NC(=O)[C@H](Cc2ccc(OCC(=O)O)cc2)NC(=O)CSC[C@@H](C(=O)NCCOCCOCC(=O)NCCCCCCCCCCC(=O)O)NC(=O)[C@H](CO)NC(=O)[C@H](C(C)(C)O)NC(=O)[C@H](CC2CCCCC2)NC(=O)[C@H](CCN)NC(=O)[C@@H](CC(C)C)NC(=O)[C@H](C)N(C)C(=O)[C@H](C(C)C)NC(=O)[C@H](Cc2ccc(-c3ccccc3)cc2)NC1=O [Example 2443] ({CH2CO}-Y(Carboxymethyl)[Phe(4-COOH)]DWL[Bip]V[NMeA][dL][Dab][Cha][Val(3-OH)]SC[AEEA][Aun]-OH; thioether N-14) | 0.0236
